Results as given in PMC11956013, “Structure–Activity Relationships and Evaluation of 2-(Heteroaryl-cycloalkyl)-1H-indoles as Tauopathy Positron Emission Tomography Radiotracers” (Journal of Medicinal Chemistry, 2025).

Legend:
Y2 (h) = Y2 (h) (Homo sapiens, UniProt P49146); settings: compound concentration 1.0E-05 M
NK1 (h) = NK1 (h) (Homo sapiens, UniProt P25103); settings: compound concentration 1.0E-05 M
alpha1B (h) = alpha1B (h) (Homo sapiens, UniProt P35368); settings: 1.0E-05 M; alpha1B (h) (antagonist radioligand)
A3 (h) = A3 (h) (Homo sapiens, UniProt P0DMS8); settings: 1.0E-05 M; A3 (h) (agonist radioligand)
5-HT3 (h) = 5-HT3 (h) (Homo sapiens, UniProt P46098); settings: 1.0E-05 M; 5-HT3 (h) (antagonist radioligand)
Oxytocin (h) = Oxytocin (h) (Homo sapiens, UniProt P30559); settings: compound concentration 1.0E-05 M
5-HT7 (h) = 5-HT7 (h) (Homo sapiens, UniProt P34969); settings: 1.0E-05 M; 5-HT7 (h) (agonist radioligand)
CYP2C19 = CYP2C19 (Homo sapiens, UniProt P33261); assay: in vitro; settings: human liver microsomes, probe omeprazole
p38alpha kinase (h) = p38alpha kinase (h) (Homo sapiens, UniProt Q16539); settings: compound concentration 1.0E-05 M
NMDA = assay: Eurofins panel: NMDA (antagonist radioligand); type: binding; settings: compound concentration 1.0E-05 M
kappa (h) (KOP) = kappa (h) (KOP) (Homo sapiens, UniProt P41145); assay: biochemical; type: binding
[1] = biological target: MAO-A, human, monoamine oxydase A (Homo sapiens, UniProt P21397); assay: MAO-A, human, monoamine oxydase A, MAO, Enzymatic Assay, Cerep, assay 5108
[2] = biological target: T1, Glutamate (Non-Selective) Rat Ion Channel Glycine (Strychnine-Insensitive) (Rattus norvegicus, UniProt P35439); assay: Glutamate (Non-Selective) Rat Ion Channel Glycine (Strychnine-Insensitive), Mass Spectrometry Binding, assay 5043
T1 construct: Eurofins assay 5043

cathepsin L (h) = biological target: T2, cathepsin L (h) (Homo sapiens, UniProt P07711); assay: Eurofins panel: cathepsin L (h) enzymatic activity; type: biochemical; settings: 1.0E-05 M; cathepsin L (h)
T2 construct: Eurofins (panel run by the vendor)

alpha2B (h) = alpha2B (h) (Homo sapiens, UniProt P18089)
M3 (h) = M3 (h) (Homo sapiens, UniProt P20309); assay: biochemical
[3] = biological target: N neuronal alpha4beta2 (h) (Homo sapiens, UniProt P17787+P43681); settings: compound concentration 1.0E-05 M
[4] = biological target: human monoamine oxidase-B (MAO-B) (Homo sapiens, UniProt P27338); assay: biochemical
M1 (h) = biological target: T3, M1 (h) (Homo sapiens, UniProt P11229); assay: biochemical; type: binding
T3 construct: purchased Eurofins (CNS SafetyScreen panel, contract assay) assay 91

dopamine transporter (h) = dopamine transporter (h) (Homo sapiens, UniProt Q01959); assay: dopamine transporter (h) (antagonist radioligand), Eurofins assay 52
PCP = assay: Eurofins panel: PCP (antagonist radioligand); type: binding; settings: compound concentration 1.0E-05 M
GABA transaminase = GABA transaminase (Rattus norvegicus, UniProt P50554); assay: GABA transaminase, Eurofins assay 461; type: biochemical; settings: Enzymatic activity; 1.0E-05 M
CYP2D6 = CYP2D6 (Homo sapiens, UniProt P10635); assay: in vitro; settings: human liver microsomes, probe dextromethorphan
A1 (h) = A1 (h) (Homo sapiens, UniProt P30542); settings: 1.0E-05 M; A1 (h) (antagonist radioligand)
acetylcholinesterase (h) = acetylcholinesterase (h) (Homo sapiens, UniProt P22303)
AMPA = assay: Eurofins panel: AMPA (agonist radioligand); type: binding; settings: 1.0E-05 M; AMPA (agonist radioligand)
D2L (h) = D2L (h) (Homo sapiens, UniProt P14416); assay: biochemical
alpha2C (h) = alpha2C (h) (Homo sapiens, UniProt P18825); settings: 1.0E-05 M; alpha2C (h) (antagonist radioligand)
D4.4 (h) = D4.4 (h) (Homo sapiens, UniProt P21917); assay: biochemical
5-HT transporter (h) = 5-HT transporter (h) (Homo sapiens, UniProt P31645); assay: Eurofins panel: 5-HT transporter (h) (antagonist radioligand); settings: 1.0E-05 M
Na+ channel (site 2) = assay: Eurofins panel: Na+ channel (site 2) (antagonist radioligand); type: binding; settings: compound concentration 1.0E-05 M
ETA (h) = ETA (h) (Homo sapiens, UniProt P25101); assay: biochemical
alpha2A (h) = alpha2A (h) (Homo sapiens, UniProt P08913); settings: 1.0E-05 M; alpha2A (h) (antagonist radioligand)
Y1 (h) = Y1 (h) (Homo sapiens, UniProt P25929); settings: compound concentration 1.0E-05 M
5-HT4e (h) = 5-HT4e (h) (Homo sapiens, UniProt Q13639); assay: Eurofins panel: 5-HT4e (h) (antagonist radioligand); settings: 1.0E-05 M; 5-HT4e (h) (antagonist radioligand)

Chain of kappa (h) (KOP) (P41145 whole entry): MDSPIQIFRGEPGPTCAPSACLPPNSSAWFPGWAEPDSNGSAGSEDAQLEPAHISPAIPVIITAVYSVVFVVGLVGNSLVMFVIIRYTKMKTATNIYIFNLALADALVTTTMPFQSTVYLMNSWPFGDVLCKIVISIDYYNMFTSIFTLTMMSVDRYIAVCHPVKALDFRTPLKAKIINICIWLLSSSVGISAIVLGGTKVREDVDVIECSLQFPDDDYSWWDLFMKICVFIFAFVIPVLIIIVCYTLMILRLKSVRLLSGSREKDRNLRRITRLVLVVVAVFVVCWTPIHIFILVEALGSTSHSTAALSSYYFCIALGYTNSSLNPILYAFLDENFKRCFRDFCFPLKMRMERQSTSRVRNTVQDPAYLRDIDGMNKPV
Chain of alpha2B (h) (P18089 whole entry): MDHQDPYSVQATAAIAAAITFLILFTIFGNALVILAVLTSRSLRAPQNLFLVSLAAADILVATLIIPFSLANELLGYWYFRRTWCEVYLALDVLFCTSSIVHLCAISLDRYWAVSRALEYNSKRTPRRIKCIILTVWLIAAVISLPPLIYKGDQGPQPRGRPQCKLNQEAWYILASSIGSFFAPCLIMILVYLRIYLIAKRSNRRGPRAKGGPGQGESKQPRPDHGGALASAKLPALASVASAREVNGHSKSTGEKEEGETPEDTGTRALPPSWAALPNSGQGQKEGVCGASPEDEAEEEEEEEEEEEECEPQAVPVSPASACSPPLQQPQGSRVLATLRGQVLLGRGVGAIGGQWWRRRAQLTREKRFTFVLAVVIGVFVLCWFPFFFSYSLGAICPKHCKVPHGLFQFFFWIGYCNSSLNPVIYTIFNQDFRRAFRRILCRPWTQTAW
T3 sequence (P11229 whole entry): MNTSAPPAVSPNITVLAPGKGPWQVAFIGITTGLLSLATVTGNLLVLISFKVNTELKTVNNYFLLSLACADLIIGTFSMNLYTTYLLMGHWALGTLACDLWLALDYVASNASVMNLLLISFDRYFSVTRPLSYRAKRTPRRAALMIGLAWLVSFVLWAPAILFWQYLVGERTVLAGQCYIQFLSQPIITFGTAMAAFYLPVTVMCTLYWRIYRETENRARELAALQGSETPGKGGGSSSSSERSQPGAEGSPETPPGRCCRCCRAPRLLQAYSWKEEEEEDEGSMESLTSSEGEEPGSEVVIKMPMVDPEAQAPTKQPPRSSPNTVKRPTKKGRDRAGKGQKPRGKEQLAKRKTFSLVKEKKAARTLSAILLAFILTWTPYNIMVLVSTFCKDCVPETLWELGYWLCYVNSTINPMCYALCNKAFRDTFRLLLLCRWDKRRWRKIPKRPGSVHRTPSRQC
Chain of M3 (h) (P20309 whole entry): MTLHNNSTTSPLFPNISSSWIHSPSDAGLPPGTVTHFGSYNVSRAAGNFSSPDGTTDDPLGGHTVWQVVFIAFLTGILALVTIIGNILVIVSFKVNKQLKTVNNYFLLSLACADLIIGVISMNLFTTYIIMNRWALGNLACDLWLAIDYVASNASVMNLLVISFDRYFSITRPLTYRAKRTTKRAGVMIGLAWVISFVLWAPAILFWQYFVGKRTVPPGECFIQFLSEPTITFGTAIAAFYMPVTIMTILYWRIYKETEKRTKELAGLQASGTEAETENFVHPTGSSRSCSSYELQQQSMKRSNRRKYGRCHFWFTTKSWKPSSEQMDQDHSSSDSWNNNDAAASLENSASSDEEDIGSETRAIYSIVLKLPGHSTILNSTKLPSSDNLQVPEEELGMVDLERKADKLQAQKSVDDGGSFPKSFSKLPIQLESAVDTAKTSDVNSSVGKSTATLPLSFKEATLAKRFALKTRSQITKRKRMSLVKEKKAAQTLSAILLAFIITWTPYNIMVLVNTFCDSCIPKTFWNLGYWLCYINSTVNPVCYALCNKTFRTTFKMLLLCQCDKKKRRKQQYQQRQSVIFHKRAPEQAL
Chain of alpha2A (h) (P08913 whole entry): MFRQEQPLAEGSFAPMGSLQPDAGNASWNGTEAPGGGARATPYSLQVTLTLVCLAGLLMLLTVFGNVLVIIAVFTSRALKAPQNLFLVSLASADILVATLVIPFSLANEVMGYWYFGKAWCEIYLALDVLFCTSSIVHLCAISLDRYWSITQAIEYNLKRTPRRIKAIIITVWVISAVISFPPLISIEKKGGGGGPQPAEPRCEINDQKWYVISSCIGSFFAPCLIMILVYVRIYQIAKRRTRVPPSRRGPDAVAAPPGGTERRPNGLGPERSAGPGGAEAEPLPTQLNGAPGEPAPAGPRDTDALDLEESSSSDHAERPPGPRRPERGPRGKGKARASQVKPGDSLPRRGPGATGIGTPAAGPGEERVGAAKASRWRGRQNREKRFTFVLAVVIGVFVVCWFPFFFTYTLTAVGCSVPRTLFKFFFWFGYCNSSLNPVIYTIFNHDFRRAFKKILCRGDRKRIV
Chain of acetylcholinesterase (h) (P22303 32-614): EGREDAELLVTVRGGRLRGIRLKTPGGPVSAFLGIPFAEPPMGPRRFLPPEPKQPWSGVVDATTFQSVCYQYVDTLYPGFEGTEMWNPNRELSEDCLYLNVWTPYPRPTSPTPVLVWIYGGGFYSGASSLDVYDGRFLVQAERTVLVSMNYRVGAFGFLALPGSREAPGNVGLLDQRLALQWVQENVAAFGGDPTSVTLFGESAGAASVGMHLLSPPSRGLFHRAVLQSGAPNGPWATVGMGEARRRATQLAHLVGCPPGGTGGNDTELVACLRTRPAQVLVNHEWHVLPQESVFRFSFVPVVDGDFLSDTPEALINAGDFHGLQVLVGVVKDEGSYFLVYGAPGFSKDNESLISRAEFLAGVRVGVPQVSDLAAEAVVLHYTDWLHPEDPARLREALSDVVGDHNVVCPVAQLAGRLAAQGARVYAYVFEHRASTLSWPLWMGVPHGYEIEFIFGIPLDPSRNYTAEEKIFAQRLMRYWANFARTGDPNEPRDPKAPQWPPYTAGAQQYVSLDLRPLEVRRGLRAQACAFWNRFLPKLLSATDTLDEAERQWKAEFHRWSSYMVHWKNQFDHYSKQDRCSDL
Chain of A3 (h) (P0DMS8 whole entry): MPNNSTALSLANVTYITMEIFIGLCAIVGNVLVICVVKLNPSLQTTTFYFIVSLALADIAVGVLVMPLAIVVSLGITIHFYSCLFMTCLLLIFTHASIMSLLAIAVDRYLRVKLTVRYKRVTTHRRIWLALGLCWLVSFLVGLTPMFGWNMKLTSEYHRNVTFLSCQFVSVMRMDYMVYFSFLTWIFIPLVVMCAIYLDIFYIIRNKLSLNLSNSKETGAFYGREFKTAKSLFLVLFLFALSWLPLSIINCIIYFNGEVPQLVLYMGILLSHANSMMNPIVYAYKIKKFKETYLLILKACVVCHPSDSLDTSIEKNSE
Chain of 5-HT transporter (h) (P31645 whole entry): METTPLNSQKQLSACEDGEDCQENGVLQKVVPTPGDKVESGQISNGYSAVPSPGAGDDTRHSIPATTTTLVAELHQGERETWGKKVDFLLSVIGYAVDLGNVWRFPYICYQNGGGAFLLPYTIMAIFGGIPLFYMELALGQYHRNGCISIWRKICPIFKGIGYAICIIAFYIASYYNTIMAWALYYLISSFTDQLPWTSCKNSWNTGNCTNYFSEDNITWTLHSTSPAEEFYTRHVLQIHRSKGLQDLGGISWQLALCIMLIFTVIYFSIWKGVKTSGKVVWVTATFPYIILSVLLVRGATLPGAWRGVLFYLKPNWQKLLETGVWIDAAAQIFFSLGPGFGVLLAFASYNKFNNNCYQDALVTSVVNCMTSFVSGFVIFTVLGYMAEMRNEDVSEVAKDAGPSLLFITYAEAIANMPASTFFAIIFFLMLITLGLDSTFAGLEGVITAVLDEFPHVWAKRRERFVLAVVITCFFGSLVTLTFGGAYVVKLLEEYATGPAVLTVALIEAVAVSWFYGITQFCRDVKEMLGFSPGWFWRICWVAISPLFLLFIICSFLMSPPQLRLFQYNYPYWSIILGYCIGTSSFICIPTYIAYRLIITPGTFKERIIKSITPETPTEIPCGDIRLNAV
Chain of p38alpha kinase (h) (Q16539 whole entry): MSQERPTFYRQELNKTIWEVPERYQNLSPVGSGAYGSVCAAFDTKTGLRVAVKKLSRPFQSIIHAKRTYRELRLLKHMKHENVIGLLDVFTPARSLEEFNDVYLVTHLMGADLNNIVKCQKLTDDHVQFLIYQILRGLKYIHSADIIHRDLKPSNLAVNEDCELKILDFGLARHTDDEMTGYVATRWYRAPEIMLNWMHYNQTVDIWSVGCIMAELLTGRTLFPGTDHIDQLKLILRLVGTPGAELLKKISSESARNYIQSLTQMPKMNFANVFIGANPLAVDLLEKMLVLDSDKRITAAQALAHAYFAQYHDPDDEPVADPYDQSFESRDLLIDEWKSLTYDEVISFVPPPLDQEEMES
Chain of NK1 (h) (P25103 whole entry): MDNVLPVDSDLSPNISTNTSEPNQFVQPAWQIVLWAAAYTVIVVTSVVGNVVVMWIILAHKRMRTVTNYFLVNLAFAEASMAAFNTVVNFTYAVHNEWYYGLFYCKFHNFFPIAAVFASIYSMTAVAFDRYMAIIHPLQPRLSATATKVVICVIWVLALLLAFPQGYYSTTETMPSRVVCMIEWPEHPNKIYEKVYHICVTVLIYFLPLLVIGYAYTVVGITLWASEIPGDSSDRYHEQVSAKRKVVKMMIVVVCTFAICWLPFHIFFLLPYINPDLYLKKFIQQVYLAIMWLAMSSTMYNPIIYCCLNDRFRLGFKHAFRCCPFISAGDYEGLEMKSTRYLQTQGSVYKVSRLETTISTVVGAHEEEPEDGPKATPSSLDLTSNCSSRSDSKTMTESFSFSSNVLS
Chain of A1 (h) (P30542 whole entry): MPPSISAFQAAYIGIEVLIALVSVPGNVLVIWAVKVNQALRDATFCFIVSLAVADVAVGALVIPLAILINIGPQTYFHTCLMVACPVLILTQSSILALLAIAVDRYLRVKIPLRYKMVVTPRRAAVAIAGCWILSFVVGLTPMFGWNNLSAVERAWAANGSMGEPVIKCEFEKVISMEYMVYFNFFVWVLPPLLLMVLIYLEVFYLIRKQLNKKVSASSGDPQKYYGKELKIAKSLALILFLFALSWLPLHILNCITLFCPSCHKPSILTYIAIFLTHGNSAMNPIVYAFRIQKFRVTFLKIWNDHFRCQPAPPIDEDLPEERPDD

Structure (SMILES): Fc1nc(N2CCOCC2)ccc1-c1cc2ccccc2[nH]1 [Compound 75, 4-(6-Fluoro-5-(1H-indol-2-yl)pyridin-2-yl)morpholine]
- % Inhibition, Specific binding (Y2 (h)): 3.943%
- % Inhibition, Specific binding (NK1 (h)): 21.8946%
- % Inhibition, Specific binding (alpha1B (h)): -4.91E+00%
- % Inhibition, Specific binding (A3 (h)): 5.821%
- % Inhibition, Specific binding (5-HT3 (h)): 0.4312%
- % Inhibition, Specific binding (Oxytocin (h)): 25.3038%
- % Inhibition, Specific binding (5-HT7 (h)): -1.16E+00%
- inhibition at 10 µM (CYP2C19): -0.914%
- % Inhibition, Enzymatic activity (p38alpha kinase (h)): 10.339%
- % Inhibition, Specific binding (NMDA): -1.90E-01%
- inhibition at 10 µM (kappa (h) (KOP)): 7.11%
- inhibition at 10 µM [1]: 3.62%
- inhibition at 10 µM [2]: 3.36%
- % Inhibition, Enzymatic activity (cathepsin L (h)): 15.4729%
- % Inhibition, Specific binding (alpha2B (h)): 2.179%
- inhibition at 10 µM (M3 (h)): -12.5%
- % Inhibition, Specific binding [3]: -8.72E+00%
- inhibition at 10 µM [4]: 61%
- inhibition at 10 µM (M1 (h)): -8.86%
- inhibition at 10 µM (dopamine transporter (h)): 17.2%
- % Inhibition, Specific binding (PCP): -3.84E+00%
- inhibition at 10 µM (GABA transaminase): -0.726%
- inhibition at 10 µM (CYP2D6): 13.6%
- % Inhibition, Specific binding (A1 (h)): -7.64E+00%
- % Inhibition, Enzymatic activity (acetylcholinesterase (h)): 1.77%
- % Inhibition, Specific binding (AMPA): 4.317%
- inhibition at 10 µM (D2L (h)): -1.3%
- % Inhibition, Specific binding (alpha2C (h)): 4.876%
- inhibition at 10 µM (D4.4 (h)): 20.4%
- % Inhibition, Specific binding (5-HT transporter (h)): -9.53E+00%
- % Inhibition, Specific binding (Na+ channel (site 2)): -1.89E+01%
- inhibition at 10 µM (ETA (h)): 4.29%
- % Inhibition, Specific binding (alpha2A (h)): -8.25E+00%
- % Inhibition, Specific binding (Y1 (h)): -2.40E+01%
- % Inhibition, Specific binding (5-HT4e (h)): 10.412%
